# From patent publication US6905852B1, “Herbicide-resistant protoporphyrinogen oxidase isolated from Nicotiana tabacum” (Nihon Nohyaku Co., Ltd., priority 1997, dated 2005)
# Legend:
# [1] = target: T1, E. coli SASX38 strain having pBAtPX-C with Arabidopsis thaliana wild type protoporphyrinogen oxidase gene (Arabidopsis thaliana, UniProt P55826); assay: Growth inhibition of E. coli SASX38 (liquid culture with shaking); type: cell-based; details: Arabidopsis thaliana wild type (pBAtPX-C); read-out: IC50, growth of E. coli
# T1 construct: expressed in transfected cells; host or cells: E. coli SASX38 (hemG-deficient) carrying pBAtPX-C (pBluescript SK(-))
# T1 sequence (P55826 35-537): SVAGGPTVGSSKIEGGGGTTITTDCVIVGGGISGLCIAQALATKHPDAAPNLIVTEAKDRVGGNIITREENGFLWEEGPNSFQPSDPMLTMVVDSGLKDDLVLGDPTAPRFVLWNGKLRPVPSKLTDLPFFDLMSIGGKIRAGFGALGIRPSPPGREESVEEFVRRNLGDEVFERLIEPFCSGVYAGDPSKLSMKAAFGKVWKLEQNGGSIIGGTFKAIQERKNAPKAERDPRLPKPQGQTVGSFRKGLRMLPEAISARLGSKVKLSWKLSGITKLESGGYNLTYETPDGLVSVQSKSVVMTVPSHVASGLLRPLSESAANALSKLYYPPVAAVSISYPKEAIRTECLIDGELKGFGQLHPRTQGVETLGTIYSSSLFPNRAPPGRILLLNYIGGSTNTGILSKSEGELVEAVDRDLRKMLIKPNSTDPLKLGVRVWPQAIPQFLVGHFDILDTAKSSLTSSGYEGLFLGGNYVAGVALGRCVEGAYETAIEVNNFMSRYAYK
# Description: (§1) The E. coli SASX38 strain containing either of the above-described two kinds of plasmid was cultured with shaking in LB liquid medium containing 50 μg/ml of ampicillin at 28° C. for overnight.
# [2] = target: T2, E. coli SASX38 strain having pBAtPX-RC with Arabidopsis thaliana resistant type protoporphyrinogen oxidase cDNA (Arabidopsis thaliana, UniProt P55826, A220V); assay: as above; type: cell-based
# T2 construct: expressed in transfected cells; host or cells: E. coli SASX38 (hemG-deficient) carrying pBAtPX-RC (pBluescript SK(-))
# T2 sequence (P55826 35-537 A220V): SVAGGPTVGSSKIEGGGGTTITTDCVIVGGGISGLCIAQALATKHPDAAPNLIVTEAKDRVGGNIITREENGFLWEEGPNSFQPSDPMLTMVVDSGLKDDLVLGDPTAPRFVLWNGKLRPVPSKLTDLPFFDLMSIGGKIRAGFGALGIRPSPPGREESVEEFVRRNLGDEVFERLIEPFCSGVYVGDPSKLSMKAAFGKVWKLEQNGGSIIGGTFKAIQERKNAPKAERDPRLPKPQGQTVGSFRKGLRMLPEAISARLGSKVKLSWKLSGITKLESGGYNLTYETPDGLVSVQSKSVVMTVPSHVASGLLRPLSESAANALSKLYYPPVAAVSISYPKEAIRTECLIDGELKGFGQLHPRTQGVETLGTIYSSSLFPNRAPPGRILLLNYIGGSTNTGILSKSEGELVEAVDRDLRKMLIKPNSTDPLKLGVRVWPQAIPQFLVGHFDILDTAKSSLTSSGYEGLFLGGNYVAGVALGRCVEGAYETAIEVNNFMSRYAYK
# Description: as §1
# [3] = target: T3, E. coli SASX38 strain having pCR-RC with tobacco resistant type protoporphyrinogen oxidase gene (Nicotiana tabacum, UniProt O24163, A174P/A191P/A231V/T382S); assay: as above; type: cell-based
# T3 construct: expressed in transfected cells; host or cells: E. coli SASX38 (hemG-deficient) carrying pCR-RC
# T3 sequence (O24163 whole entry A174P/A191P/A231V/T382S): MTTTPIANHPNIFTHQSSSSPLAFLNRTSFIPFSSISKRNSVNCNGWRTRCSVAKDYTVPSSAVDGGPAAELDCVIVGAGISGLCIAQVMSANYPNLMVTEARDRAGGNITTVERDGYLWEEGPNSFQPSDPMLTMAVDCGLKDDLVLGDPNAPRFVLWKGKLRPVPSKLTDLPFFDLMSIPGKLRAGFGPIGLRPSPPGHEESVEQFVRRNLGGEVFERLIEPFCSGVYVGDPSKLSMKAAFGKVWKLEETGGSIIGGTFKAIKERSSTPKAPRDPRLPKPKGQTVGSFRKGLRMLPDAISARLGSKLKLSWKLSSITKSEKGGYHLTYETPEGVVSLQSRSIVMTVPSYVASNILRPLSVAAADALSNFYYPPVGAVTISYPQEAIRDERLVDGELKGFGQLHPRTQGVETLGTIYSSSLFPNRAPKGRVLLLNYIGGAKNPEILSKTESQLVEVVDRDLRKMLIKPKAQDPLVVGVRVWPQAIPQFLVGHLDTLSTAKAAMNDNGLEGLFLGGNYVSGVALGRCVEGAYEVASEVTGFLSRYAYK
# Description: as §1
# [4] = target: T4, E. coli SASX38 strain having pCR-HC with tobacco wild type protoporphyrinogen oxidase cDNA (Nicotiana tabacum, UniProt O24163); assay: as above; type: cell-based; details: E. coli containing pCR-HC; read-out: IC50, growth of E. coli inhibited by 50%
# T4 construct: expressed in transfected cells; host or cells: E. coli SASX38 (hemG-deficient) carrying pCR-HC
# T4 sequence (O24163 51-548): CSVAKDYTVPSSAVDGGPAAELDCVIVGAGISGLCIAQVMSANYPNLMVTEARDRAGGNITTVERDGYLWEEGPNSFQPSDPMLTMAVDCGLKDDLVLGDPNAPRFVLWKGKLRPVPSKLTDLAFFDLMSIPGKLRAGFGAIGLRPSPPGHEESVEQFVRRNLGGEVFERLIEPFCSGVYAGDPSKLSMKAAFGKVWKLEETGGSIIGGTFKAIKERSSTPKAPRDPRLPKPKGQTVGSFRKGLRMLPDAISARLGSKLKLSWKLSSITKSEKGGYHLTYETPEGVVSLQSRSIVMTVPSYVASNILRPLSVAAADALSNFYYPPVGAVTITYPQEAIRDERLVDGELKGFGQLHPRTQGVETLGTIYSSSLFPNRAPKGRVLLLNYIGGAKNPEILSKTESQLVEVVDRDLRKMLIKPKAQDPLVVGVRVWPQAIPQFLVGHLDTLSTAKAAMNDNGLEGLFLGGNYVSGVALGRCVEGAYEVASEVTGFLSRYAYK
# Description: as §1
# [5] = tested on: E. coli SASX38 strain having pCR-RC with tobacco resistant type protoporphyrinogen oxidase gene; assay: as above; type: cell-based, Nicotiana tabacum; details: tobacco
# Description: as §1
# ETR-253 = assay: MIC on MS agar medium, cross-resistance to herbicides; type: cell-based, Nicotiana tabacum
# Description: (§2) Further, cross-resistance of a resistant strain tolerant to herbicides with various modes of action was examined. Sensitivity to fomesafen (trade mark: FLEX) and oxadiazon (trade mark: RONSTAR), which are photobleaching herbicide and accumulate protoporphyrin IX; pyrazoxyfen (trademark: PAICER) which is a chlorophyll synthesis inhibitor and causes bleaching; DPX-84 and bialaphos (trademark: BASTA) and glyphosate (trademark: ROUNDUP) which are an inhibitor of the amino acid synthesis; butachlor (trademark: MACHETE) which is a protein synthesis inhibitor; propanil (trademark: STAM) which is an inhibitor of light synthesis photochemical system II and paraquat (trademark: PREEGLOX) which is an inhibitor of photosystem I and produces an active oxygen was compared. Into MS agar medium containing each herbicides, each resistant strain was transplanted and minimum inhibition concentration (MIC) was measured. […] From the above results, ETR-056 was thought to have resistance to an active oxygen caused by overproduction of superoxide dismutase, and ETR-253 was thought to have resistance to many herbicides caused by decreasing of a membrane permeability, and ETR-245 was thought to have resistance caused by mutation of a target enzyme or overproduction of a target enzyme.
# (§3) MIC of compound A to the sensitive cell lines, ETR-056, ETR-245 and ETR-253 were measured.
# Sensitive strain = assay: as above; type: cell-based, Nicotiana tabacum; details: sensitive cell line
# Description: as §2, §3
# ETR-056 = assay: as above; type: cell-based, Nicotiana tabacum
# Description: as §2, §3
# ETR-245 = assay: as above; type: cell-based, Nicotiana tabacum
# Description: as §2, §3
structure (smiles),measurement,setting,value
"CCOC(=O)COc1cc(-c2nn(C)c(OC(F)F)c2Cl)c(F)cc1Cl [Compound A, ethyl 2-chloro-5-(4-chloro-5-difluoromethoxy-1-methyl-1H-pyrazol-3-yl)-4-fluorophenoxyacetate]",IC50,[1],~5 nM
same,IC50,[2],1500 nM
same,R/S ratio (IC50 value of the resistant type/IC50 value of the wild type),[2]; Arabidopsis thaliana,about 300
same,IC50,[3],≥ 10000 nM
same,IC50,[4],~2.5 nM
same,R/S ratio (IC50 value of a resistant type/IC50 value in a wild type),[5],"over 4,000"
same,MIC,ETR-253,"over 2,400 nM"
same,MIC,Sensitive strain,5 nM
same,MIC,ETR-056,"over 2,400 nM"
same,MIC,ETR-245,"over 2,400 nM"
